Tests used:
CYP3A4 [1] = target: T1, CYP3A4 (Homo sapiens, UniProt P08684); conditions: literature reported Km; metabolite hydroxyl-testosterone; cited from earlier work
CYP2A6 = target: T2, CYP2A6 (Homo sapiens, UniProt P11509); conditions: literature reported Km; metabolite hydroxyl-coumarine; cited from earlier work
T2 sequence (P11509 1-494): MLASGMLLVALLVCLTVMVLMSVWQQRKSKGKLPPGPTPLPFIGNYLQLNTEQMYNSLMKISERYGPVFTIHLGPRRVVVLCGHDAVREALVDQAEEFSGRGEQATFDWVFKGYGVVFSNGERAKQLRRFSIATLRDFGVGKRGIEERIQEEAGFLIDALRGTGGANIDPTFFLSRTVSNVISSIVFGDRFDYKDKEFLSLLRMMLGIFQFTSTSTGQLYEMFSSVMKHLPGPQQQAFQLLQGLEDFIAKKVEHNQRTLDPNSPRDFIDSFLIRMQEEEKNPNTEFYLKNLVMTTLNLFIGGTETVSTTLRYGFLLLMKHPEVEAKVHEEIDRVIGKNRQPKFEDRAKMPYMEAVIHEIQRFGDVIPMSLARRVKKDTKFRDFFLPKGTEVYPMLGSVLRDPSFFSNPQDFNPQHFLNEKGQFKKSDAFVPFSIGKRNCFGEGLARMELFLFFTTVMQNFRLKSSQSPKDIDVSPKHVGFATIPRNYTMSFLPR

CYP3A4 [2] = target: T1, CYP3A4; conditions: reported; cited from earlier work
CYP2B6 [3] = target: T3, CYP2B6 (Homo sapiens, UniProt P20813); conditions: reported; cited from earlier work
T3 sequence (P20813 1-491): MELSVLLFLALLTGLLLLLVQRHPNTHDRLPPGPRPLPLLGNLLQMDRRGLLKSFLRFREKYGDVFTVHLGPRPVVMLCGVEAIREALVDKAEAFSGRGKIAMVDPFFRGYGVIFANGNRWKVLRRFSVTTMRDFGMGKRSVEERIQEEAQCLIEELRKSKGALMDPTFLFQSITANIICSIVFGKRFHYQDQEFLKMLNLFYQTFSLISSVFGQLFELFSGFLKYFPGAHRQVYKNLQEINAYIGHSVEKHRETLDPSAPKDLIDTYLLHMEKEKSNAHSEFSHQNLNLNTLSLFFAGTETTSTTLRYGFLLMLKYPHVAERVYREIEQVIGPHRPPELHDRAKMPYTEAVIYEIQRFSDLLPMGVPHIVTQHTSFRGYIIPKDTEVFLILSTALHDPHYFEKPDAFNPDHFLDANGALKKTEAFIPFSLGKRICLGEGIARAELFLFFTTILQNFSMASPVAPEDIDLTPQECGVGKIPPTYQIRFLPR

CYP2C8 [4] = target: T4, CYP2C8 (Homo sapiens, UniProt P10632); conditions: literature reported Km; metabolite 6-alpha hydroxyl-paclitaxel; cited from earlier work
T4 sequence (P10632 1-490): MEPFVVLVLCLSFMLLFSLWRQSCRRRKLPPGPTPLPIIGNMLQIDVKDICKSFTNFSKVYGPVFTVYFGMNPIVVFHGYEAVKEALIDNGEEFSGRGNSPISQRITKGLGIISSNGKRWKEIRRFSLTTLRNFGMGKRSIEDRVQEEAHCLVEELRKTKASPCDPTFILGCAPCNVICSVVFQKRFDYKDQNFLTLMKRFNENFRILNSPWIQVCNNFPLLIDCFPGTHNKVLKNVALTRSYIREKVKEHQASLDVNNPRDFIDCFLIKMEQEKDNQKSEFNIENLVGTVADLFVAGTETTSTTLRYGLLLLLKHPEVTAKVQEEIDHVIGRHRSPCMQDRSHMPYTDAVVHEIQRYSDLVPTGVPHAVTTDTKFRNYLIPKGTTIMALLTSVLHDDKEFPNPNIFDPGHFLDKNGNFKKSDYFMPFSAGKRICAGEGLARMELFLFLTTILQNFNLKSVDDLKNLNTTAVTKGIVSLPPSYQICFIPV

CYP2C9 = CYP2C9 (Homo sapiens, UniProt P11712); conditions: literature reported Km; metabolite hydroxyl-diclofenac; cited from earlier work
CYP2C9, sequence (P11712 whole entry): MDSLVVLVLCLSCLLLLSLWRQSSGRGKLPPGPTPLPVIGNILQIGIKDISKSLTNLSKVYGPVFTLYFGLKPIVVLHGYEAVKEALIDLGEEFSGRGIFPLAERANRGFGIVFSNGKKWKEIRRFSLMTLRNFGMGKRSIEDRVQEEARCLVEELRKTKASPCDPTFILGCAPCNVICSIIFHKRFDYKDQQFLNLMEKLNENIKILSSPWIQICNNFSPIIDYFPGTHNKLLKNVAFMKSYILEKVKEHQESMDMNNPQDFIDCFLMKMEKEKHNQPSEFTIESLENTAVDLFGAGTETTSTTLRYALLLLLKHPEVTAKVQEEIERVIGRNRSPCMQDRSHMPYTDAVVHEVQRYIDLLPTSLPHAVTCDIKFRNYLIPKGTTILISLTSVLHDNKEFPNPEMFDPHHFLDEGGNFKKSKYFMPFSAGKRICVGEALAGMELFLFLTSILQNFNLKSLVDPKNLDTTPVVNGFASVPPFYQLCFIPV

CYP2B6 [5] = target: T3, CYP2B6; conditions: literature reported Km; metabolite hydroxyl-bupropion; cited from earlier work
CYP2C8 [6] = target: T4, CYP2C8; experiment: Single substrate (individual) CYP inhibition assay in human liver microsomes, LC-MS/MS; conditions: read-out: Single Substrate IC50; substrate Paclitaxel 5 μM; HLM 0.2 mg/mL; 30 min; n = 4

T1 sequence (P08684 whole entry): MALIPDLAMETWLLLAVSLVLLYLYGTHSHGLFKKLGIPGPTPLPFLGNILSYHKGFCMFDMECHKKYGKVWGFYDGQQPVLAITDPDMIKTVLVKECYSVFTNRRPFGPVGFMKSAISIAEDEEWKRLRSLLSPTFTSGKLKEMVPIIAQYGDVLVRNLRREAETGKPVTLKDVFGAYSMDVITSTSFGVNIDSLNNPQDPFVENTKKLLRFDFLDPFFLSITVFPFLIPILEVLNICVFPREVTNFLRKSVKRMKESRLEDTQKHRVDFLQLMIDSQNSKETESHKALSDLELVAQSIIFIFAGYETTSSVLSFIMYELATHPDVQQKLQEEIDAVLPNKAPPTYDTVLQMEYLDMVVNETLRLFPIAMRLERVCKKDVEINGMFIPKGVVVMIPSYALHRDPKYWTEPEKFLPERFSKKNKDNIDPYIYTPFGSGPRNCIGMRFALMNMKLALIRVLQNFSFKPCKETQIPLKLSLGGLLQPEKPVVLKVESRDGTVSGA

## C[C@]12CC[C@H]3[C@@H](CCC4=CC(=O)CC[C@@]43C)[C@@H]1CC[C@@H]2O [Testosterone]
CYP3A4 [1]
  Km: 48.5 ± 3.75 µM

## O=c1ccc2ccccc2o1 [Coumarin]
CYP2A6
  Km: 1.17 ± 0.118 µM

## CCOc1ccc(NC(C)=O)cc1 [Phenacetin]
CYP3A4 [2]
  Inhibition of CYP3A4 by probe substrate: weakly inhibit
CYP2B6 [3]
  Inhibition of CYP2B6 by probe substrate: weakly inhibit

## CC(=O)O[C@H]1C(=O)[C@@]2(C)[C@H]([C@H](OC(=O)c3ccccc3)[C@]3(O)C[C@H](OC(=O)[C@H](O)[C@@H](NC(=O)c4ccccc4)c4ccccc4)C(C)=C1C3(C)C)[C@]1(OC(C)=O)CO[C@@H]1C[C@@H]2O [Paclitaxel]
CYP2C8 [4]
  Km: 11.5 ± 7.5 µM

## O=C(O)Cc1ccccc1Nc1c(Cl)cccc1Cl [Diclofenac]
CYP2C9
  Km: 22 ± 11 µM

## CC(NC(C)(C)C)C(=O)c1cccc(Cl)c1 (centres unmarked) [Bupropion]
CYP2B6 [5]
  Km: 103 ± 7.65 µM

## CC(C)(O)c1ccccc1CC[C@@H](SCC1(CC(=O)O)CC1)c1cccc(/C=C/c2ccc3ccc(Cl)cc3n2)c1 [Montelukast]
CYP2C8 [6]
  IC50: 521 nM

From patent US20230272448A1, “AN IMPROVED SUBSTRATE COCKTAIL ASSAY FOR HIGH-THROUGHPUT SCREENING OF CYTOCHROME P450 INHIBITORS” (priority 2020, published 2023)
